Where “and” joins values, the source holds several entries; their conditions need not be identical. Identical values can stand only once. Like-named read-outs stand apart in the source and are kept apart here.
Experiment: First-in-human clinical study: plasma and whole blood PK of INX-315 (oral QD, ASD tablet)
Format: in vivo
Set-up: AUC Plasma / AUC Whole Blood: unit not given here
Description: All INX-315 tablets were taken at approximately the same time(s) each day.
Samples will also be collected pre-dose on Cycle 1 Days 2, 8, 16, and Day 22, and pre-dose on Day 1 of each subsequent cycle.
Standard non-compartmental PK parameters were estimated.
Geometric mean and geometric CV % will be included in the summary statistics.
PK parameters will be summarized descriptively by dosing cohort. AUC and Cmax values will also be presented in scatter plots. Dose proportionality will be assessed for AUC and Cmax using a power model. The 90% CI of the slope for each PK parameter will be estimated from the model and presented in a summary table.
Cohort 1 enrollment of 6 subjects dosed at 100 mg oral QD was completed in October of 2023.
Patients were upgraded to the 200 mg QD dose level and PK/PD plasma parameters were measured (FIG. 18A).
Patients were administered the 200 mg QD and 300 mg QD dose levels and PK/PD plasma parameters were measured.

[1] = Cohort 1 (100 mg QD), Day 1, individual subjects
[2] = Cohort 1 (100 mg QD), Day 15, individual subjects
[3] = Cohort 2 (200 mg QD), Day 1, individual subjects
[4] = Cohort 2 (200 mg QD), Day 15, individual subjects
[5] = Cohort 3 (300 mg QD), Day 1, individual subjects
[6] = human, plasma, oral, 100 mg, 100 mg QD (n = 6)
[7] = human, plasma, oral, 200 mg, 200 mg QD (n = 2)

NS(=O)(=O)c1ccc(Nc2ncc3cc4n(c3n2)C2(CCCCC2)C(=O)NN4)cc1 [INX-315]
Mean free plasma trough concentration (100 mg QD, C 1 D 1 (Day 1)): 2.98 (6) ng/mL and 2.98 ng/mL
Mean free plasma trough concentration (100 mg QD, C 1 D 7 (Day 7)): 5.7 (6) ng/mL and 5.71 ng/mL
Mean free plasma trough concentration (100 mg QD, C 1 D 14): 4.72 ng/mL
Mean free plasma trough concentration (100 mg QD, C 1 D 15): 5.43 ng/mL
Mean free plasma trough concentration (100 mg QD, C 1 D 21): 4.72 ng/mL
Mean free plasma trough concentration (100 mg QD, C 2 D 1): 4.32 ng/mL
Mean free plasma trough concentration (100 mg QD, C 3 D 1): 4.27 ng/mL
Mean free plasma trough concentration (100 mg QD, C 4 D 1): 5.91 ng/mL
Mean free plasma trough concentration (200 mg QD, C 1 D 1 (Day 1)): 7.3 (2) ng/mL and 7.31 ng/mL
Mean free plasma trough concentration (200 mg QD, C 1 D 7 (Day 7)): 10.2 (2) ng/mL and 10.16 ng/mL
AUC Plasma [1]: 2532 and 1886 and 3391 and 2271 and 3370 and 640.8
AUC Whole Blood [1]: 44857 and 38499 and 41732 and 33139 and 60740 and 13440
AUC Plasma [2]: 1276 and 5858 and 3444 and 6910 and 1951
AUC Whole Blood [2]: 37642 and 44316 and 118285 and 31754
time to steady state trough concentrations (Cohort 1, 100 mg QD): ≤ 7 days
AUC Plasma [3]: 4955 and 7528 and 11982 and 19801
AUC Whole Blood [3]: 132257 and 94340 and 131625
AUC Plasma [4]: 6987 and 6286 and 18669 and 13618
AUC Whole Blood [4]: 94895 and 236613 and 183345 and 112733
AUC Plasma [5]: 12111 and 11382 and 8338 and 11173
AUC Whole Blood [5]: 149733 and 88350 and 116734 and 106858
half-life (human, plasma and whole blood, oral, 100 mg, preliminary data of the expanded cohort 1, 100 mg QD, read-out: t1/2 (converted)): ≥ 12 h
concentration at 0.5 h [6]: 18.9 ng/mL
concentration at 1 h [6]: 71.4 ng/mL
concentration at 2 h [6]: 158 ng/mL
concentration at 6 h [6]: 132 ng/mL
concentration at 8 h [6]: 121 ng/mL
concentration at 24 h (human, plasma, oral, 100 mg, 100 mg QD (n = 6), […], read-out: Mean plasma concentration): 57.4 ng/mL
AUC (human, plasma, oral, 100 mg, plasma, 100 mg QD (n = 6), read-out: Total Area (AUC)): 2400 ng·h/mL
Cmax (human, plasma, oral, 100 mg, plasma, 100 mg QD, Day 1 (Example 10), read-out: Cmax): 148 ng/mL
AUC(0-t) (human, plasma, oral, 100 mg, plasma, 100 mg QD, Day 1, Cohort 1 (Table 27), read-out: AUClast, geometric mean): 2640 ng·h/mL
Cmax (human, plasma, oral, 100 mg, plasma, 100 mg QD, Day 1, Cohort 1 (Table 27), read-out: Cmax, geometric mean): 193 ng/mL
Tmax (human, plasma, oral, 100 mg, plasma, 100 mg QD, Day 1, Cohort 1 (Table 27), read-out: Tmax, median): 2 h
half-life (human, plasma, oral, 100 mg, plasma, 100 mg QD, Day 1, Cohort 1 (Table 27), read-out: t1/2, geometric mean (converted)): 12.6 h
AUC (human, plasma, oral, 100 mg, plasma, 100 mg QD, Day 1, average of five human patients (Example 10), read-out: AUC): 2020 ng·h/mL
AUC(0-t) (human, plasma, oral, 100 mg, plasma, 100 mg QD, Day 1, individual patients, read-out: AUClast): 3490 ng·h/mL
half-life (human, plasma, oral, 100 mg, plasma, 100 mg QD, Day 1, individual patients, read-out: t1/2 (converted)): 15.1 h
AUC (human, plasma, oral, 100 mg, plasma, 100 mg QD, Day 1 observed, mean of first two patients, read-out: AUC): 3450 ng·h/mL
Cmax (human, plasma, oral, 100 mg, plasma, 100 mg QD, Day 1 observed, mean of first two patients, read-out: Cmax): 196 ng/mL
concentration at 1 day (human, plasma, oral, 100 mg, plasma, 100 mg QD, Day 1 observed, mean of first two patients, read-out: Cmin): 103 ng/mL
concentration at 1 day (human, plasma, oral, 100 mg, plasma, 100 mg QD, Day 1 observed, mean of first two patients, read-out: Cmin^free): 5.4 ng/mL
AUC (human, plasma, oral, 100 mg, plasma, 100 mg QD, Day 15 (Example 10), read-out: AUC): 3290 ng·h/mL
Cmax (human, plasma, oral, 100 mg, plasma, 100 mg QD, Day 15 (Example 10), read-out: Cmax): 211 ng/mL
AUC(0-t) (human, plasma, oral, 100 mg, plasma, 100 mg QD, Day 15, individual patients, read-out: AUClast): 7240 ng·h/mL
Cmax (human, plasma, oral, 100 mg, plasma, 100 mg QD, Day 15, individual patients, read-out: Cmax): 457 ng/mL
half-life (human, plasma, oral, 100 mg, plasma, 100 mg QD, Day 15, individual patients, read-out: t1/2 (converted)): 17 h
AUC (human, plasma, oral, 100 mg, plasma, 100 mg QD, Day 15 observed, mean of first two patients, read-out: AUC): 6580 ng·h/mL
Cmax (human, plasma, oral, 100 mg, plasma, 100 mg QD, Day 15 observed, mean of first two patients, read-out: Cmax): 408 ng/mL
concentration at 15 day (human, plasma, oral, 100 mg, plasma, 100 mg QD, Day 15 observed, mean of first two patients, read-out: Cmin): 177 ng/mL
concentration at 15 day (human, plasma, oral, 100 mg, plasma, 100 mg QD, Day 15 observed, mean of first two patients, read-out: Cmin^free): 9.2 ng/mL
concentration at 12 h (human, plasma, oral, 100 mg, plasma, 100 mg QD, first dose level (Table 5), read-out: C12 hr): 252 ng/mL
concentration at 24 h (human, plasma, oral, 100 mg, plasma, 100 mg QD, first dose level (Table 5), read-out: C24 hr): 177 ng/mL
Cmax (human, plasma, oral, 100 mg, plasma, 100 mg QD, first dose level (Table 5), read-out: Cmax): 388 ng/mL
AUC (human, plasma, oral, 100 mg, plasma, 100 mg QD, removing esophageal cancer patient with low exposure, read-out: Total Area (adjusted AUC)): 2740 ng·h/mL
concentration at 0.5 h [7]: 69.6 ng/mL
concentration at 1 h [7]: 109 ng/mL
concentration at 2 h [7]: 246 ng/mL
concentration at 6 h [7]: 343 ng/mL
concentration at 8 h [7]: 374 ng/mL
concentration at 24 h (human, plasma, oral, 200 mg, 200 mg QD (n = 2), […], read-out: Mean plasma concentration): 141 ng/mL
AUC (human, plasma, oral, 200 mg, plasma, 200 mg QD (n = 2), read-out: Total Area (AUC)): 6260 ng·h/mL
AUC(0-t) (human, plasma, oral, 200 mg, plasma, 200 mg QD, Day 1, Cohort 2, read-out: AUClast, geometric mean): 8940 ng·h/mL
AUC(0-t) (human, plasma, oral, 200 mg, plasma, 200 mg QD, Day 1, Cohort 2, read-out: AUClast, median): 7970 ng·h/mL
Cmax (human, plasma, oral, 200 mg, plasma, 200 mg QD, Day 1, Cohort 2, read-out: Cmax, geometric mean): 590 ng/mL
Cmax (human, plasma, oral, 200 mg, plasma, 200 mg QD, Day 1, Cohort 2, read-out: Cmax, median): 577 ng/mL
Tmax (human, plasma, oral, 200 mg, plasma, 200 mg QD, Day 1, Cohort 2, read-out: Tmax, median): 8 h
Tmax (human, plasma, oral, 200 mg, plasma, 200 mg QD, Day 1, individual subjects, read-out: Tmax): 8 h
half-life (human, plasma, oral, 200 mg, plasma, 200 mg QD, Day 1, individual subjects, read-out: t1/2 (converted)): 18.1 h
AUC(0-t) (human, plasma, oral, 200 mg, plasma, 200 mg QD, Day 15, Cohort 2, read-out: AUClast, geometric mean): 12200 ng·h/mL
AUC(0-t) (human, plasma, oral, 200 mg, plasma, 200 mg QD, Day 15, Cohort 2, read-out: AUClast, median): 13700 ng·h/mL
Cmax (human, plasma, oral, 200 mg, plasma, 200 mg QD, Day 15, Cohort 2, read-out: Cmax, geometric mean): 922 ng/mL
Cmax (human, plasma, oral, 200 mg, plasma, 200 mg QD, Day 15, Cohort 2, read-out: Cmax, median): 888 ng/mL
Tmax (human, plasma, oral, 200 mg, plasma, 200 mg QD, Day 15, Cohort 2, read-out: Tmax, median): 6 h
half-life (human, plasma, oral, 200 mg, plasma, 200 mg QD, Day 15, Cohort 2, read-out: t1/2, geometric mean (converted)): 10.8 h
half-life (human, plasma, oral, 200 mg, plasma, 200 mg QD, Day 15, Cohort 2, read-out: t1/2, median (converted)): 10.5 h
Cmax (human, plasma, oral, 200 mg, plasma, 200 mg QD, Day 15, individual subjects, read-out: Cmax): 779 ng/mL
half-life (human, plasma, oral, 200 mg, plasma, 200 mg QD, Day 15, individual subjects, read-out: t1/2 (converted)): 8.36 h
AUC (human, plasma, oral, 300 mg, Cohort 3 (300 mg QD), Day 1, individual subjects, read-out: AUC Plasma): 8200 ng·h/mL
AUC (human, plasma, oral, 300 mg, Cohort 3 (300 mg QD), Day 15, Tlast = 6 hours, read-out: AUC Plasma): 4570 ng·h/mL
AUC (human, plasma, oral, 300 mg, Cohort 3 (300 mg QD), Day 15, individual subjects, read-out: AUC Plasma): 5820 ng·h/mL
AUC(0-t) (human, plasma, oral, 300 mg, plasma, 300 mg QD cohort, Day 1, geometric mean, read-out: AUClast, Geometric Mean): 9550 ng·h/mL
Cmax (human, plasma, oral, 300 mg, plasma, 300 mg QD cohort, Day 1, geometric mean, read-out: Cmax, Geometric Mean): 628 ng/mL
AUC(0-t) (human, plasma, oral, 300 mg, plasma, 300 mg QD cohort, Day 1, individual subjects, read-out: AUClast): 10200 ng·h/mL
Cmax (human, plasma, oral, 300 mg, plasma, 300 mg QD cohort, Day 1, individual subjects, read-out: Cmax): 727 ng/mL
Tmax (human, plasma, oral, 300 mg, plasma, 300 mg QD cohort, Day 1, individual subjects, read-out: Tmax): 8 h
half-life (human, plasma, oral, 300 mg, plasma, 300 mg QD cohort, Day 1, individual subjects, read-out: t1/2 (converted)): 17.3 h
AUC(0-t) (human, plasma, oral, 300 mg, plasma, 300 mg QD cohort, Day 1, median, read-out: AUClast, Median): 10200 ng·h/mL
Cmax (human, plasma, oral, 300 mg, plasma, 300 mg QD cohort, Day 1, median, read-out: Cmax, Median): 615 ng/mL
Tmax (human, plasma, oral, 300 mg, plasma, 300 mg QD cohort, Day 1, median, read-out: Tmax, Median): 8 h
AUC(0-t) (human, plasma, oral, 300 mg, plasma, 300 mg QD cohort, Day 15, individual subjects, read-out: AUClast): 5590 ng·h/mL
Cmax (human, plasma, oral, 300 mg, plasma, 300 mg QD cohort, Day 15, individual subjects, read-out: Cmax): 568 ng/mL
Tmax (human, plasma, oral, 300 mg, plasma, 300 mg QD cohort, Day 15, individual subjects, read-out: Tmax): 1 h
half-life (human, plasma, oral, 300 mg, plasma, 300 mg QD cohort, Day 15, individual subjects, read-out: t1/2 (converted)): 9.23 h
AUC(0-t) (human, plasma, po, 100 mg, plasma, 100 mg QD cohort, Day 1, geometric mean, read-out: AUClast, Geometric Mean): 2020 ng·h/mL
Cmax (human, plasma, po, 100 mg, plasma, 100 mg QD cohort, Day 1, geometric mean, read-out: Cmax, Geometric Mean): 148 ng/mL
half-life (human, plasma, po, 100 mg, plasma, 100 mg QD cohort, Day 1, geometric mean, read-out: t1/2, Geometric Mean (converted)): 13.1 h
half-life (human, plasma, po, 100 mg, plasma, 100 mg QD cohort, Day 1, individual subjects, read-out: t1/2 (converted)): 11.5 h
AUC(0-t) (human, plasma, po, 100 mg, plasma, 100 mg QD cohort, Day 1, median, read-out: AUClast, Median): 2280 ng·h/mL
Cmax (human, plasma, po, 100 mg, plasma, 100 mg QD cohort, Day 1, median, read-out: Cmax, Median): 187 ng/mL

From patent US20260041640A1 (INCYCLIX BIO, LLC, priority 2023, published 2026)
